# Results: ChEMBL document CHEMBL1201862, “PubChem BioAssay data set” (2004)
#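 In this assay, cells in 96-well plates receive the compound at five concentrations for 48 hours. Endpoints are linearly interpolated between the surrounding concentrations. GI50 is the concentration that inhibits growth by half.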 Active and inactive are the calls of the source. Rule as the data show it: active = GI50 up to about 1.1 µM and inactive = higher.
# Legend:
# Assay in all cases: NCI tumour cell line growth inhibition, 48 h
# [1] = test system: DMS-114
# [2] = test system: HOP-18
# [3] = test system: OVCAR-3
# [4] = test system: XF498
# [5] = test system: SF-295
# [6] = test system: HOP-62
# [7] = test system: NCI-H23
# [8] = test system: OVCAR-4
# [9] = test system: KM12
# [10] = test system: HL-60
# [11] = test system: OVCAR-8
# [12] = test system: DLD-1
# [13] = test system: HCT-15
# [14] = test system: HCT-116
# [15] = test system: A498
# [16] = test system: SK-MEL-5
# [17] = test system: RXF 631
# [18] = test system: CAKI-1
# [19] = test system: DMS-273
# [20] = test system: M14
# [21] = test system: SF-539
# [22] = test system: U-251
# [23] = test system: MOLT-4
# [24] = test system: NCI-H460
# [25] = test system: SR
# [26] = test system: NCI-H522
# [27] = test system: HOP-92
# [28] = test system: EKVX
# [29] = test system: SNB-78
# [30] = test system: HT-29
# [31] = test system: TK-10
# [32] = test system: M19-MEL
# [33] = test system: HCC 2998
# [34] = test system: UACC-257
# [35] = test system: RPMI-8226
# [36] = test system: OVCAR-5
# [37] = test system: IGROV-1
# [38] = test system: SF-268
# [39] = test system: LXFL 529
# [40] = test system: KM-20L2
# [41] = test system: 786-0
# [42] = test system: SK-MEL-28
# [43] = test system: CCRF-CEM
# [44] = test system: SW-620
# [45] = test system: A549
# [46] = test system: SN12C
# [47] = test system: ACHN
# [48] = test system: SK-OV-3
# [49] = test system: UO-31
# [50] = test system: SNB-75
# [51] = test system: UACC-62
# [52] = test system: SNB-19
# [53] = test system: SK-MEL-2
# [54] = test system: COLO 205
# [55] = test system: RXF 393
# [56] = test system: Malme-3M
# [57] = test system: LOX IMVI
smiles,measurement,setting,value
C/C(=N/NS(=O)(=O)c1ccc(C)cc1)c1cccc[n+]1[O-],GI50,[1],> 100 µM (inactive)
same,GI50,[2],> 100 µM (inactive)
same,GI50,[3],> 100 µM (inactive)
same,GI50,[4],> 100 µM (inactive)
same,GI50,[5],> 100 µM (inactive)
same,GI50,[6],> 100 µM (inactive)
same,GI50,[7],> 100 µM (inactive)
same,GI50,[8],> 100 µM (inactive)
same,GI50,[9],> 100 µM (inactive)
same,GI50,[10],> 100 µM (inactive)
same,GI50,[11],> 100 µM (inactive)
same,GI50,[12],> 100 µM (inactive)
same,GI50,[13],> 100 µM
same,GI50,[14],> 100 µM (inactive)
same,GI50,[15],> 100 µM (inactive)
same,GI50,[16],> 100 µM (inactive)
same,GI50,[17],> 100 µM (inactive)
same,GI50,[18],> 100 µM (inactive)
same,GI50,[19],> 100 µM (inactive)
same,GI50,[20],> 100 µM (inactive)
same,GI50,[21],> 100 µM (inactive)
same,GI50,[22],> 100 µM (inactive)
same,GI50,[23],> 100 µM (inactive)
same,GI50,[24],> 100 µM (inactive)
same,GI50,[25],> 100 µM (inactive)
same,GI50,[26],> 100 µM (inactive)
same,GI50,[27],> 100 µM (inactive)
same,GI50,[28],> 100 µM (inactive)
same,GI50,[29],> 100 µM (inactive)
same,GI50,[30],> 100 µM (inactive)
same,GI50,[31],> 100 µM (inactive)
same,GI50,[32],> 100 µM (inactive)
same,GI50,[33],> 100 µM (inactive)
same,GI50,[34],> 100 µM (inactive)
same,GI50,[35],> 100 µM (inactive)
same,GI50,[36],> 100 µM (inactive)
same,GI50,[37],> 100 µM (inactive)
same,GI50,[38],> 100 µM (inactive)
same,GI50,[39],> 100 µM (inactive)
same,GI50,[40],> 100 µM (inactive)
same,GI50,[41],> 100 µM (inactive)
same,GI50,[42],> 100 µM (inactive)
same,GI50,[43],> 100 µM (inactive)
same,GI50,[44],> 100 µM (inactive)
same,GI50,[45],> 100 µM (inactive)
same,GI50,[46],> 100 µM (inactive)
same,GI50,[47],> 100 µM (inactive)
same,GI50,[48],> 100 µM (inactive)
same,GI50,[49],> 100 µM (inactive)
same,GI50,[50],> 100 µM (inactive)
same,GI50,[51],> 100 µM (inactive)
same,GI50,[52],> 100 µM (inactive)
CN(C)C(=O)Oc1c(-c2ccccc2)c(=O)n2c3ccccc3n3c(=O)n(C)c(=O)c1c23,GI50,[53],> 100 µM (inactive)
same,GI50,[1],> 100 µM (inactive)
same,GI50,[2],> 100 µM (inactive)
same,GI50,[3],> 100 µM (inactive)
same,GI50,[4],> 100 µM (inactive)
same,GI50,[5],> 100 µM (inactive)
same,GI50,[6],> 100 µM (inactive)
same,GI50,[7],> 100 µM (inactive)
same,GI50,[8],> 100 µM (inactive)
same,GI50,[9],> 10 µM (inactive)
same,GI50,[11],> 100 µM (inactive)
same,GI50,[12],> 100 µM (inactive)
same,GI50,[13],> 100 µM
same,GI50,[14],> 100 µM (inactive)
same,GI50,[15],> 100 µM (inactive)
same,GI50,[16],> 100 µM (inactive)
same,GI50,[17],> 100 µM (inactive)
same,GI50,[18],> 100 µM (inactive)
same,GI50,[54],> 100 µM (inactive)
same,GI50,[19],> 100 µM (inactive)
same,GI50,[20],> 100 µM (inactive)
same,GI50,[21],> 100 µM (inactive)
same,GI50,[55],> 100 µM (inactive)
same,GI50,[22],> 100 µM (inactive)
same,GI50,[23],> 100 µM (inactive)
same,GI50,[24],> 100 µM (inactive)
same,GI50,[25],> 100 µM (inactive)
same,GI50,[27],> 100 µM (inactive)
same,GI50,[28],> 100 µM (inactive)
same,GI50,[29],> 100 µM (inactive)
same,GI50,[30],> 100 µM (inactive)
same,GI50,[31],> 100 µM (inactive)
same,GI50,[32],> 100 µM (inactive)
same,GI50,[33],> 100 µM (inactive)
same,GI50,[34],> 100 µM (inactive)
same,GI50,[35],> 100 µM (inactive)
same,GI50,[36],> 100 µM (inactive)
same,GI50,[37],> 100 µM (inactive)
same,GI50,[38],> 100 µM (inactive)
same,GI50,[39],> 100 µM (inactive)
same,GI50,[41],> 100 µM (inactive)
same,GI50,[42],> 100 µM (inactive)
same,GI50,[44],> 100 µM (inactive)
same,GI50,[56],> 100 µM (inactive)
same,GI50,[45],> 100 µM (inactive)
same,GI50,[46],> 100 µM (inactive)
same,GI50,[47],> 100 µM (inactive)
same,GI50,[57],> 100 µM (inactive)
same,GI50,[48],> 100 µM (inactive)
same,GI50,[49],> 100 µM (inactive)
same,GI50,[50],72.3 µM (inactive)
same,GI50,[51],> 100 µM (inactive)
same,GI50,[52],> 100 µM (inactive)
O=C(/C=C/c1ccco1)N1CCN(Cc2ccccc2)CC1,GI50,[1],> 100 µM (inactive)
same,GI50,[2],> 100 µM (inactive)
same,GI50,[3],> 100 µM (inactive)
same,GI50,[4],> 100 µM (inactive)
same,GI50,[5],> 100 µM (inactive)
same,GI50,[6],> 100 µM (inactive)
same,GI50,[7],> 100 µM (inactive)
same,GI50,[8],> 100 µM (inactive)
same,GI50,[9],> 100 µM (inactive)
same,GI50,[10],> 100 µM (inactive)
same,GI50,[11],> 100 µM (inactive)
same,GI50,[12],> 100 µM (inactive)
same,GI50,[13],> 100 µM
same,GI50,[14],> 100 µM (inactive)
same,GI50,[15],> 100 µM (inactive)
same,GI50,[16],> 100 µM (inactive)
same,GI50,[17],> 100 µM (inactive)
same,GI50,[18],> 100 µM (inactive)
same,GI50,[19],> 100 µM (inactive)
same,GI50,[20],> 100 µM (inactive)
same,GI50,[21],> 100 µM (inactive)
same,GI50,[22],> 100 µM (inactive)
same,GI50,[23],> 100 µM (inactive)
same,GI50,[24],> 100 µM (inactive)
same,GI50,[25],> 100 µM (inactive)
same,GI50,[26],> 100 µM (inactive)
same,GI50,[27],> 100 µM (inactive)
same,GI50,[28],> 100 µM (inactive)
same,GI50,[29],> 100 µM (inactive)
same,GI50,[30],> 100 µM (inactive)
same,GI50,[31],> 100 µM (inactive)
same,GI50,[32],> 100 µM (inactive)
same,GI50,[33],> 100 µM (inactive)
same,GI50,[34],> 100 µM (inactive)
same,GI50,[35],> 100 µM (inactive)
same,GI50,[36],> 100 µM (inactive)
same,GI50,[37],> 100 µM (inactive)
same,GI50,[38],> 100 µM (inactive)
same,GI50,[39],> 100 µM (inactive)
same,GI50,[40],> 100 µM (inactive)
same,GI50,[41],> 100 µM (inactive)
same,GI50,[42],> 100 µM (inactive)
same,GI50,[43],> 100 µM (inactive)
same,GI50,[44],> 100 µM (inactive)
same,GI50,[45],> 100 µM (inactive)
same,GI50,[46],> 100 µM (inactive)
same,GI50,[47],> 100 µM (inactive)
same,GI50,[57],> 100 µM (inactive)
same,GI50,[48],> 100 µM (inactive)
same,GI50,[49],96.8 µM (inactive)
same,GI50,[50],> 100 µM (inactive)
same,GI50,[51],> 100 µM (inactive)
same,GI50,[52],> 100 µM (inactive)
